In brackets after ≈: the same amount, converted by molar mass. Read-outs that look alike come from different tables or passages of the source. Marks after values point to notes of the source that are not given here.
Experiments:
[1] = Chemical stability testing in DMSO, ACN/H2O, ACN/0.1N HCl, ACN/0.1N NaOH (% by LCMS); type: physicochemical
Protocol: Preliminary Protocol • Add 3 μl of a 10 mM DMSO stock solution to 1 ml of the following solvents in a 1.5 ml HPLC vial. • DMSO (reference solution) • H2O/Acetonitril 1/1 (assay solution) • 0.1N HCl/Acetonitril 1/1 (assay solution) • Mix well, […] LCMS • Compare the chromatograms of the two assay solutions with the reference solution and report the additional peaks as degradation peaks

[2] = system: Mycobacterium tuberculosis strain (EH4.0, GFP-expressing; Test 2: H37Rv); assay: MIC determination against M. tuberculosis, Test 1 (and/or Test 2); type: cell-based; details: 7 days incubation, fluorescence; for IC50: Mycobacterium tuberculosis, H37RV, 168 h
[3] = Mitochondrial toxicity (Glu/Gal) assay; type: cell-based; details: for Glu/Gal: Gal: galactose medium; for Glu/Gal: Glu: glucose medium; for all read-outs here: unit not given here
Excerpt: (§1) The compounds of the invention/examples may have advantages associated with in vitro potency, kill kinetics (i.e. bactericidal effect) in vitro, PK properties, food effect, safety/toxicity (including liver toxicity, coagulation, 5-LO oxygenase), metabolic stability, Ames II negativity, MINT negativity, aqueous based solubility (and ability to formulate) and/or cardiovascular effect e.g. on animals (e.g. anesthetized guinea pig). Data that is generated/calculated may be obtained using standard methods/assays, for instance that are available in the literature or which may be performed by a supplier (e.g. Microsomal Stability Assay—Cyprotex, Mitochondrial toxicity (Glu/Gal) assay—Cyprotex, as well as literature CYP cocktail inhibition assays). GSH can be measured (reactive metabolites, […]) to observe if a dihydrodiol is observed by LCMS (fragmentation ions), which would correspond to a dihydroxylation on the core heterocycle.

[4] = system: MDCK; assay: MDCK permeability / efflux; details: A to B with inhibitor; for MDCK AB+inh: unit not given here
[5] = MDCK permeability / efflux; details: dog, MDCK; for MDCK AB+inh: unit not given here
[6] = system: CYPs (all isoforms, or the isoforms not named for that compound); assay: CYP cocktail inhibition, all / other isoforms; type: in vitro ADME; details: read-out: CYPS IC50 (all / others)
Excerpt: as §1

[7] = LM Clint (microsomal stability), human; type: in vitro ADME
Excerpt: as §1

[8] = molecular target: 2C9 (Homo sapiens, UniProt P11712); assay: CYP cocktail inhibition, 2C9; type: in vitro ADME; details: read-out: CYPS IC50 2C9
Excerpt: as §1

[9] = physchem; type: physicochemical
Excerpt: as §1

[10] = molecular target: hERG (Homo sapiens, UniProt Q12809); assay: sync hERG; type: cell-based
[11] = LM Clint (microsomal stability), mouse; type: in vitro ADME; details: mouse, microsomes
Excerpt: as §1

[12] = physchem
[13] = molecular target: 2C19 (Homo sapiens, UniProt P33261); assay: CYP cocktail inhibition, 2C19; type: in vitro ADME; details: read-out: CYPS IC50 2C19
Excerpt: as §1

[14] = in vitro; details: mouse, hepatocytes
[15] = AMES II; details: score
Excerpt: as §1

[16] = physchem; type: physicochemical; remark: listed apart in the source
[17] = in vitro; details: human, plasma
[18] = in vitro; details: mouse, plasma
[19] = system: M. tuberculosis H37Rv; details: strain H37Rv, inside macrophages; cited from earlier work
[20] = h (human) liver microsomes, read-out: LM Clint
[21] = pH 2, simulated gastric fluid, thermodynamic from solid
[22] = pH 7, aqueous buffer, thermodynamic from solid

Chain of hERG (Q12809 whole entry): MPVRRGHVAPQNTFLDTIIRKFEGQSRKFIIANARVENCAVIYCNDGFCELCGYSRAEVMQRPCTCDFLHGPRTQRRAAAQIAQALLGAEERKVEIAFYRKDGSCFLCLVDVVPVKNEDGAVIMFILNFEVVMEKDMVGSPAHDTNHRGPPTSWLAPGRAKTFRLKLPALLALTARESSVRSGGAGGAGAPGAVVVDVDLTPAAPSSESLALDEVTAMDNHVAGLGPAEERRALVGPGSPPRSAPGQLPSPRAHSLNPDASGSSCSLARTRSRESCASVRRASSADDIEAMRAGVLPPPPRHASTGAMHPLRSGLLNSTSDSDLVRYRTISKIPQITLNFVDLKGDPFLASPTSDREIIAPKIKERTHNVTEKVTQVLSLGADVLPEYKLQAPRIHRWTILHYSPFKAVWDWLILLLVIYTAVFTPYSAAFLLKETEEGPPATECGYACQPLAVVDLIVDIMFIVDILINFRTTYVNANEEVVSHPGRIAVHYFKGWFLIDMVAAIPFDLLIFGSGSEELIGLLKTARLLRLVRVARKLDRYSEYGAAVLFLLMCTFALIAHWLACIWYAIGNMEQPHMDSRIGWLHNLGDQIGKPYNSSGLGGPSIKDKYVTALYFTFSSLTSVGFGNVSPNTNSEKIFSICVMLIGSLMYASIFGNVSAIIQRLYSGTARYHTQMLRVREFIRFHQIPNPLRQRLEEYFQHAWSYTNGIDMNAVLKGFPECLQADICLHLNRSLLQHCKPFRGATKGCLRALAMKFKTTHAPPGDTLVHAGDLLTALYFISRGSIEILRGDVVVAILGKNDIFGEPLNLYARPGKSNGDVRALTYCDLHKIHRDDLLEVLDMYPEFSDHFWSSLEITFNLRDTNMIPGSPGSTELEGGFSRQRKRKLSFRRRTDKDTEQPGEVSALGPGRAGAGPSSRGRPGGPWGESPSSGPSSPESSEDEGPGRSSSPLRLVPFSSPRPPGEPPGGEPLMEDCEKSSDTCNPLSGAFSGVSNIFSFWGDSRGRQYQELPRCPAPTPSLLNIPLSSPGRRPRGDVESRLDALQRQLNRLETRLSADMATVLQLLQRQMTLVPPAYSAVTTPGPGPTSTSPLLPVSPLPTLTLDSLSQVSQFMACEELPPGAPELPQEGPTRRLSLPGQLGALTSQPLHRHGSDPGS
Chain of 2C9 (P11712 whole entry): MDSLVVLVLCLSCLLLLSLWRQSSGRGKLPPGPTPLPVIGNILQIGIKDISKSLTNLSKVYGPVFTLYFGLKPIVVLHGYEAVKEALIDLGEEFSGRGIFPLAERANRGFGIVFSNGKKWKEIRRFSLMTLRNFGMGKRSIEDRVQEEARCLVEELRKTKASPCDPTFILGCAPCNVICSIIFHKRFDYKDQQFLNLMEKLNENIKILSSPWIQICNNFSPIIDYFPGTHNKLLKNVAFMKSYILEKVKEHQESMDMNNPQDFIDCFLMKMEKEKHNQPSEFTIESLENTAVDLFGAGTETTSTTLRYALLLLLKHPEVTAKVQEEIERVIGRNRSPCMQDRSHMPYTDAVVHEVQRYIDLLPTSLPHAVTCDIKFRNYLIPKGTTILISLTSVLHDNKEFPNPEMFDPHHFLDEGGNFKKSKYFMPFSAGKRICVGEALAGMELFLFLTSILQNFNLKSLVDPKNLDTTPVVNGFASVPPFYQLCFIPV
Chain of 2C19 (P33261 whole entry): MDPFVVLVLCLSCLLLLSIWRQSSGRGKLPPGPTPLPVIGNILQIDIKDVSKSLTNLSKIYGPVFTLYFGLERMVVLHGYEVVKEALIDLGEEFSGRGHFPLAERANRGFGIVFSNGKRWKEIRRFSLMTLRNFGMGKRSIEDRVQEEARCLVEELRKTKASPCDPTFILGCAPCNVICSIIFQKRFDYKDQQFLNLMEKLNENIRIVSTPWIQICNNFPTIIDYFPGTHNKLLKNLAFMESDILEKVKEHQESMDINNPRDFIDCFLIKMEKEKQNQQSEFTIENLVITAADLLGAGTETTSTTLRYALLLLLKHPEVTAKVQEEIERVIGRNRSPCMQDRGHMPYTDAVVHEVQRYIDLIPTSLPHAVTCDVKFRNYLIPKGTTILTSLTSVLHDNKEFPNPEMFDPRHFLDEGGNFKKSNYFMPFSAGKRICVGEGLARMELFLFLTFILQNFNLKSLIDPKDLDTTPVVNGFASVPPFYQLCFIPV

CCc1nc2ncc(C)cn2c1C(=O)NCCc1ccc(-c2nc3n(n2)CCN(S(=O)(=O)C(F)(F)F)C3)cc1 [Compound 66]
chemical stability (% by LCMS) ([1]; ACN/0.1N HCl (pH 1.6; 48 hr, rt)): 98% | chemical stability (% by LCMS) ([1]; ACN/H2O (48 hr, rt)): 98% | chemical stability (% by LCMS) ([1]; DMSO (0 hr, rt)): 91% | pIC50 [2]: 6.57

CCc1nc2ccc(C)cn2c1C(=O)NCc1ccc(-c2cc3n(n2)CCN(S(=O)(=O)C(F)(F)F)C3)cc1 [Compound 81]
chemical stability (% by LCMS) ([1]; 0 h, 30 μM): 95% | chemical stability (% by LCMS) ([1]; 48 h, 30 μM): 100% | chemical stability (% by LCMS) ([1]; 48 h, 30 μM, pH 1.6): 100% | IC50 [2]: 0.0204 µM

CCc1nc2ccc(Cl)cn2c1C(=O)NCc1cnc(-c2nc3n(n2)CCN(S(=O)(=O)C(F)(F)F)C3)c(F)c1 [Compound 15]
chemical stability (% by LCMS) ([1]; 72 h, 30 µM): 97.03% | chemical stability (% by LCMS) ([1]; 72 h, 30 µM, pH 1.6): 97.49% | IC50 [2]: 0.501 µM

CCc1nc2ccc(C)cn2c1C(=O)NCc1ccc(-c2nc3n(n2)CCN(S(=O)(=O)C(F)(F)F)C3)cc1 [Compound 24]
chemical stability (% by LCMS) ([1]; 0 h, 30 μM): 100% | chemical stability (% by LCMS) ([1]; 0 h, 30 μM, pH 1.6): 100% | chemical stability (% by LCMS) ([1]; 0 h, 30 μM, pH 9): 89.46% | chemical stability (% by LCMS) ([1]; 48 h, 30 μM): 100% | chemical stability (% by LCMS) ([1]; 48 h, 30 μM, pH 1.6): 100% | chemical stability (% by LCMS) ([1]; 48 h, 30 μM, pH 9): 43.8% | IC50 [2]: 0.00891 µM

CCc1nc2ncc(C)cn2c1C(=O)NCc1ccc(-c2nc3n(n2)CCN(S(=O)(=O)C(F)(F)F)C3)c(F)c1 [Compound 7]
chemical stability (% by LCMS) ([1]; 72 h, 30 µM): 100% | chemical stability (% by LCMS) ([1]; 72 h, 30 µM, pH 1.6): 100% | Glu/Gal: Gal [3]: > 200 | Glu/Gal: Glu [3]: > 200 | MDCK AB+inh [4]: 21.4 | efflux ratio [5]: 61.7 | IC50 [2]: 0.00851 µM | IC50 ([6]; human): > 20 µM | microsomal CLint [7, 20]: 22.6 µL/min/mg | IC50 [8]: 15.5 µM | solubility thermodynamic [9, 21]: 125 µM (≈ 70.8 µg/mL) | solubility thermodynamic [9, 22]: 1.62 µM (≈ 0.918 µg/mL) | IC50 [10]: > 30 µM

CCc1nc2ccc(C)cn2c1C(=O)NCc1ccc(-c2cn3c(n2)CN(S(=O)(=O)C(F)(F)F)CC3)cc1 [Compound 79]
chemical stability (% by LCMS) ([1]; 0 h, 30 μM): 100% | chemical stability (% by LCMS) ([1]; 48 h, 30 μM): 100% | chemical stability (% by LCMS) ([1]; 48 h, 30 μM, pH 1.6): 100% | microsomal CLint [11]: 13.2 µL/min/mg | Glu/Gal: Gal [3]: > 200 | Glu/Gal: Glu [3]: > 200 | MDCK AB+inh [4]: 42.7 | solubility ([12]; fassif): 5.6 µM (≈ 3.06 µg/mL) | solubility ([12]; fessif): 29.3 µM (≈ 16 µg/mL) | IC50 [2]: 0.00676 µM | IC50 ([6]; human): > 20 µM | microsomal CLint ([7]; human, microsomes): 39.8 µL/min/mg | IC50 [13]: 14.4 µM | half-life [14]: 0.722 h | IC50 [8]: 17.7 µM | AMES II [15]: 1 | solubility thermodynamic [9, 21]: 574 µM (≈ 314 µg/mL) | solubility thermodynamic ([9]; pH 4, aqueous buffer): 0.062 µM (≈ 0.0339 µg/mL) | IC50 [10]: 30.2 µM

CCc1nc2ncc(Cl)cn2c1C(=O)NCc1ccc(-c2nc3n(n2)CCN(S(=O)(=O)C(F)(F)F)C3)cc1 [Compound 2]
chemical stability (% by LCMS) ([1]; 72 h, 30 µM): 100% | chemical stability (% by LCMS) ([1]; 72 h, 30 µM, pH 1.6): 90.52% | Glu/Gal: Gal [3]: > 100 | Glu/Gal: Glu [3]: > 100 | MDCK AB+inh [4]: 32.5 | efflux ratio [5]: 12.6 | solubility ([12]; fassif): < 5 µM | solubility ([12]; fessif): 24.4 µM (≈ 13.9 µg/mL) | purity ([16]; 0.065 mg/mL in SGF with 20% ACN, at 0 hr): 99.56% | purity ([16]; 0.065 mg/mL in SGF with 20% ACN, at 0.25 hr): 99.38% | purity ([16]; 0.065 mg/mL in SGF with 20% ACN, at 0.5 hr): 99.21% | purity ([16]; 0.065 mg/mL in SGF with 20% ACN, at 1 hr): 98.89% | purity ([16]; 0.065 mg/mL in SGF with 20% ACN, at 2 hr): 98.28% | purity ([16]; 0.065 mg/mL in SGF with 20% ACN, at 4 hr): 97.1% | half-life at 0.065 mg/mL ([16]; simulated gi fluid): 113 h | IC50 [2]: 0.01 µM | IC50 [6]: > 20 µM | fraction unbound [17]: 0.0117 | microsomal CLint [7, 20]: 9.3 µL/min/mg | fraction unbound [18]: 0.0054 | AMES II [15]: 1 | solubility thermodynamic [9, 21]: 0.99 µM (≈ 0.563 µg/mL) | solubility thermodynamic [9, 22]: < 0.13 µM | IC50 [10]: > 30 µM

CCc1nc2ccc(Cl)cn2c1C(=O)NCc1ccc(N2CCC(c3ccc(OC(F)(F)F)cc3)CC2)cc1 [Compound Q203]
MIC50 [19]: 0.00028 µM (≈ 0.000156 µg/mL)

CCc1nc2ncc(C)cn2c1C(=O)NCc1ccc(-c2cc3n(n2)CCN(S(=O)(=O)C(F)(F)F)C3)cc1 [Compound 44]
chemical stability (% by LCMS) ([1]; 48 h, 30 μM): 100% | chemical stability (% by LCMS) ([1]; 48 h, 30 μM, pH 1.6): 100% | IC50 [2]: 0.00219 µM

CCc1nc2cc(N)c(Cl)cn2c1C(=O)NCc1ccc(-c2nc3n(n2)CCN(S(=O)(=O)C(F)(F)F)C3)c(F)c1 [Compound 14]
chemical stability (% by LCMS) ([1]; 72 h, 30 µM): 100% | chemical stability (% by LCMS) ([1]; 72 h, 30 µM, pH 1.6): 100% | IC50 [2]: 0.105 µM

CCc1nc2ncc(C)cn2c1C(=O)NCc1ccc(-c2nc3n(n2)CCN(S(=O)(=O)N2CCCC2)C3)cc1 [Compound 47]
chemical stability (% by LCMS) ([1]; 48 h, 30 μM): 99% | chemical stability (% by LCMS) ([1]; 48 h, 30 μM, pH 1.6): 100% | IC50 [2]: 0.02 µM

Cc1cnc2nc(C3CC3)c(C(=O)NCc3ccc(-c4nc5n(n4)CCN(S(=O)(=O)C(F)(F)F)C5)cc3)n2c1 [Compound 42]
chemical stability (% by LCMS) ([1]; 48 h, 30 μM): 100% | chemical stability (% by LCMS) ([1]; 48 h, 30 μM, pH 1.6): 100% | IC50 [2]: 0.00501 µM

O=C(NCc1ccc(-c2nc3n(n2)CCN(S(=O)(=O)C(F)(F)F)C3)c(F)c1)c1c(C(F)(F)F)nc2ccccn12 [Compound 6]
chemical stability (% by LCMS) ([1]; 48 h, 30 μM): 100% | chemical stability (% by LCMS) ([1]; 48 h, 30 μM, pH 1.6): 100% | purity ([16]; 0.052 mg/mL in SGF with 33.3% ACN, remained so up to 4 hrs): 99.88% | IC50 [2]: 0.0832 µM

CCc1nc2cc(OC)c(Cl)cn2c1C(=O)NCc1ccc(-c2nc3n(n2)CCN(S(=O)(=O)C(F)(F)F)C3)c(F)c1 [Compound 10]
chemical stability (% by LCMS) ([1]; 72 h, 30 µM): 97.03% | chemical stability (% by LCMS) ([1]; 72 h, 30 µM, pH 1.6): 100% | IC50 [2]: > 0.5 µM

CCc1nc2nc(N)c(Cl)cn2c1C(=O)NCc1ccc(-c2nc3n(n2)CCN(S(=O)(=O)C(F)(F)F)C3)c(F)c1 [Compound 12]
chemical stability (% by LCMS) ([1]; 72 h, 30 µM): 96.14% | chemical stability (% by LCMS) ([1]; 72 h, 30 µM, pH 1.6): 97.06% | IC50 [2]: 0.0933 µM

CCc1nc2ncc(C)cn2c1C(=O)NCc1cccc(Cc2nc3n(n2)CCN(S(=O)(=O)C(F)(F)F)C3)c1 [Compound 71]
pIC50 [2]: <6.3*

CCc1nc2ncc(C)cn2c1C(=O)NC1(c2ccc(-c3nc4n(n3)CCN(S(=O)(=O)C(F)(F)F)C4)cc2)CC1 [Compound 68]
pIC50 [2]: <6.3*
